Laboratory results: ChEMBL document CHEMBL3400121, “Design and synthesis of novel 1,2,3-triazole-pyrimidine-urea hybrids as potential anticancer agents” (Bioorg Med Chem Lett, 2015)
Activity calls are given as the source filed them. No cut-off for these calls is given here.

What was measured:
[1] = system: MGC-803; assay: Induction of apoptosis in human MGC803 cells assessed as viable cells at 4 uM after 12 to 24 hrs using annexin V-FITC/PI double staining by flow cytometry (reference value: 90.4 %); format: functional; conditions: read-out: Activity
[2] = system: MGC-803; assay: Induction of apoptosis in human MGC803 cells assessed as early apoptotic cells at 4 uM after 12 to 24 hrs using annexin V-FITC/PI double staining by flow cytometry (reference value: 1.6 %); format: functional
[3] = system: MGC-803; assay: Induction of apoptosis in human MGC803 cells assessed as late apoptotic cells at 4 uM after 12 to 24 hrs using annexin V-FITC/PI double staining by flow cytometry (reference value: 1.2 %); format: functional
[4] = system: MGC-803; assay: Induction of apoptosis in human MGC803 cells assessed as necrotic cells at 4 uM after 12 to 24 hrs using annexin V-FITC/PI double staining by flow cytometry (reference value: 6.8 %); format: functional
[5] = system: MGC-803; assay: Induction of apoptosis in human MGC803 cells assessed as total apoptotic cells at 1 uM after 12 to 24 hrs using annexin V-FITC/PI double staining by flow cytometry (reference value: 2.8 %); format: functional
[6] = system: MGC-803; assay: Induction of apoptosis in human MGC803 cells assessed as total apoptotic cells at 2 uM after 12 to 24 hrs using annexin V-FITC/PI double staining by flow cytometry (reference value: 2.8 %); format: functional
[7] = system: MGC-803; assay: Induction of apoptosis in human MGC803 cells assessed as total apoptotic cells at 4 uM after 12 to 24 hrs using annexin V-FITC/PI double staining by flow cytometry (reference value: 2.8 %); format: functional
[8] = system: MGC-803; assay: Induction of apoptosis in human MGC803 cells after 12 to 24 hrs using annexin V-FITC/PI double staining by flow cytometry; format: functional, cell-based
[9] = Anticancer activity against human EC109 cells assessed as inhibition of proliferation after 72 hrs by MTT assay; format: functional, cell-based; conditions: ECa-109, 72 h
[10] = system: MCF7; assay: Anticancer activity against human MCF7 cells assessed as inhibition of proliferation after 72 hrs by MTT assay; format: functional, cell-based; conditions: MCF7, 72 h
[11] = system: MGC-803; assay: Anticancer activity against human MGC803 cells assessed as inhibition of proliferation after 72 hrs by MTT assay; format: functional, cell-based; conditions: MGC-803, 72 h
[12] = Anticancer activity against mouse B16F10 cells assessed as inhibition of proliferation after 72 hrs by MTT assay; format: functional, cell-based; conditions: B16-F10, 72 h
[13] = Cytotoxicity against human GES-1 cells assessed as inhibition of proliferation after 72 hrs by MTT assay; format: cell-based; conditions: GES1, 72 h
[14] = system: MGC-803; assay: Induction of apoptosis in human MGC803 cells assessed as increase in p53 level at 2 to 4 uM after 48 hrs by Western blot analysis; format: functional, cell-based
[15] = system: MGC-803; assay: Induction of apoptosis in human MGC803 cells assessed as decrease in pro-caspase 3 level at 2 to 4 uM after 48 hrs by Western blot analysis; format: functional, cell-based
[16] = system: MGC-803; assay: Induction of apoptosis in human MGC803 cells assessed as cell rounding at 1 to 4 uM after 24 hrs using Hoechst 33258 staining by fluorescence microscopy; format: functional, cell-based
[17] = system: MGC-803; assay: Induction of apoptosis in human MGC803 cells assessed as chromatin shrinkage at 1 to 4 uM after 24 hrs using Hoechst 33258 staining by fluorescence microscopy; format: functional, cell-based
[18] = system: MGC-803; assay: Induction of apoptosis in human MGC803 cells assessed as formation of apoptotic bodies at 1 to 4 uM after 24 hrs using Hoechst 33258 staining by fluorescence microscopy; format: functional, cell-based
[19] = system: MGC-803; assay: Induction of apoptosis in human MGC803 cells assessed as viable cells at 1 uM after 12 to 24 hrs using annexin V-FITC/PI double staining by flow cytometry (reference value: 90.4 %); format: functional; conditions: read-out: Activity
[20] = system: MGC-803; assay: Induction of apoptosis in human MGC803 cells assessed as early apoptotic cells at 1 uM after 12 to 24 hrs using annexin V-FITC/PI double staining by flow cytometry (reference value: 1.6 %); format: functional
[21] = system: MGC-803; assay: Induction of apoptosis in human MGC803 cells assessed as late apoptotic cells at 1 uM after 12 to 24 hrs using annexin V-FITC/PI double staining by flow cytometry (reference value: 1.2 %); format: functional
[22] = system: MGC-803; assay: Induction of apoptosis in human MGC803 cells assessed as necrotic cells at 1 uM after 12 to 24 hrs using annexin V-FITC/PI double staining by flow cytometry (reference value: 6.8 %); format: functional
[23] = system: MGC-803; assay: Induction of apoptosis in human MGC803 cells assessed as viable cells at 2 uM after 12 to 24 hrs using annexin V-FITC/PI double staining by flow cytometry (reference value: 90.4 %); format: functional; conditions: read-out: Activity
[24] = system: MGC-803; assay: Induction of apoptosis in human MGC803 cells assessed as early apoptotic cells at 2 uM after 12 to 24 hrs using annexin V-FITC/PI double staining by flow cytometry (reference value: 1.6 %); format: functional
[25] = system: MGC-803; assay: Induction of apoptosis in human MGC803 cells assessed as late apoptotic cells at 2 uM after 12 to 24 hrs using annexin V-FITC/PI double staining by flow cytometry (reference value: 1.2 %); format: functional
[26] = system: MGC-803; assay: Induction of apoptosis in human MGC803 cells assessed as necrotic cells at 2 uM after 12 to 24 hrs using annexin V-FITC/PI double staining by flow cytometry (reference value: 6.8 %); format: functional

Question: With `COc1cc(-c2nc(SCc3cn(CC(=O)NC(=O)Nc4ccccn4)nn3)nc(Nc3ccc(C)cc3)c2C#N)cc(OC)c1OC` as the compound, how does the viability at 4 µM [1] read?
Answer: The viability at 4 µM was 35.2%.

Question: And the Activity [2]?
Answer: Its Activity is 52.7%.

Question: And the Activity [3]?
Answer: Its Activity is 10.3%.

Question: What about the Activity [4] of the same compound?
Answer: The Activity was 1.8%.

Question: And the Activity [5]?
Answer: The Activity was 17.2%.

Question: What about the Activity [6] of the same compound?
Answer: Its Activity is 32.5%.

Question: And the Activity [7]?
Answer: Its Activity is 63%.

Question: And the Activity [8]?
Answer: Its Activity is “Dose-dependent effect”.

Question: What about the IC50 [9] of the same compound?
Answer: Its IC50 is 21.3 µM.

Question: And the IC50 [10]?
Answer: The IC50 was 21 µM.

Question: And the IC50 [11]?
Answer: The IC50 was 7.03 µM.

Question: What about the IC50 [12] of the same compound?
Answer: Its IC50 is 0.032 µM.

Question: What about the IC50 [13] of the same compound?
Answer: Its IC50 is over 64 µM.

Question: What about the Activity [14] of the same compound?
Answer: Its Activity is “Active”.

Question: And the Activity [15]?
Answer: The Activity was “Active”.

Question: What about the Activity [16] of the same compound?
Answer: The Activity was “Active”.

Question: What about the Activity [17] of the same compound?
Answer: Its Activity is “Active”.

Question: What about the Activity [18] of the same compound?
Answer: Its Activity is “Active”.

Question: And the viability at 1 µM [19]?
Answer: The viability at 1 µM was 80.3%.

Question: And the Activity [20]?
Answer: The Activity was 13.1%.

Question: And the Activity [21]?
Answer: Its Activity is 4.1%.

Question: And the Activity [22]?
Answer: Its Activity is 2.5%.

Question: What about the viability at 2 µM [23] of the same compound?
Answer: The viability at 2 µM was 65.8%.

Question: And the Activity [24]?
Answer: Its Activity is 26.1%.

Question: What about the Activity [25] of the same compound?
Answer: Its Activity is 6.4%.

Question: What about the Activity [26] of the same compound?
Answer: Its Activity is 1.7%.
